{"source": "patent US20170112831A1", "about": "“USE OF CCR1 ANTAGONISTS AS A TREATMENT FOR TUMORS OF THE CENTRAL NERVOUS SYSTEM” (priority 2015, published 2017)", "system": "GL261 murine glioma cells", "experiment": "Microglia stimulated glioma invasion, Matrigel-coated invasion chamber coculture assay", "format": "cell-based", "conditions": "250 nM CCR1 antagonist, 48 hours, GL261 cocultured with microglia, vs DMSO; FIG. 1", "method": "Microglial stimulation of glioma invasion. CCR1 antagonists were screened using the glioblastoma cells and microglia invasion assay described below.\nGL261 murine glioma cells expressing the fluorescent protein m-Cherry and microglial (MG) cells stained with cell tracker green (CMFDA; Invitrogen) were cocultured on Matrigel-coated invasion chambers (Becton, Dickinson and Company). Cells were plated at a density per invasion chamber of 100,000 labeled GL261 cells with an additional 150,000 unlabelled GL261 cells or with 50,000 unlabelled GL261 and 50,000 MG cells in M-SFM with 0.3% BSA. Invasion chambers were incubated for 48 hours in the presence of DMSO, or 250 nM of the CCR1 antagonist, after which they were fixed in 3.7% paraformaldehyde in PBS. Imaging of the cells on the bottom of the filter was performed using an AMG EVOS epifluorescent microscope. The extent of invasion was quantified by counting the number of glioblastoma cells (green) that were on the underside of the filter in at least seven 10× fields. The final number of invasive cells in the control was multiplied by 0.75 to normalize.", "data": [{"smiles": "Cc1nnc([C@H]2CCCN2C(=O)Nc2ccc(C(F)(F)F)cc2)n1Cc1ccc(Cl)cc1", "note": "[Compound #1]", "values": [{"measurement": "reduction in the number of invasive glioma cells", "result": "greater than 50%"}]}]}
